In BigSolDB 2.1:

COc1ccc(Cl)cc1C(=O)NCCc1ccc(S(=O)(=O)NC(=O)NC2CCCCC2)cc1
solubility (mole fraction)
Conditions | 283.15 K | 288.15 K | 293.15 K | 298.15 K | 303.15 K | 308.15 K | 313.15 K | 318.15 K | 323.15 K
in MIBK | 0.000198 | 0.000227 | 0.000276 | 0.000336 | 0.000426 | 0.000529 | 0.000655 | 0.000789 | 0.000908
in acetone | 0.000471 | 0.000568 | 0.00069 | 0.000894 | 0.00109 | 0.00134 | 0.00171 | 0.00214 | 0.00261
in acetonitrile | 5.25e-05 | 7.15e-05 | 9.85e-05 | 0.000131 | 0.000163 | 0.000225 | 0.000316 | 0.000418 | 0.000558
in ethanol | 0.000108 | 0.00015 | 0.000188 | 0.000249 | 0.000316 | 0.000412 | 0.000591 | 0.000865 | 0.00116
in ethyl acetate | 9.01e-05 | 0.000121 | 0.00015 | 0.000181 | 0.000226 | 0.00029 | 0.000375 | 0.000486 | 0.000627
in isopropanol | 7.55e-05 | 8.89e-05 | 0.000126 | 0.000162 | 0.000207 | 0.000271 | 0.000401 | 0.000619 | 0.000934
in methanol | 0.000124 | 0.000165 | 0.00021 | 0.000284 | 0.000355 | 0.000488 | 0.000695 | 0.00105 | 0.00143
in methyl acetate | 0.000127 | 0.000164 | 0.000202 | 0.000246 | 0.000296 | 0.000372 | 0.000492 | 0.000629 | 0.000769
in n-butanol | 0.000186 | 0.000223 | 0.000242 | 0.000284 | 0.000334 | 0.000445 | 0.000646 | 0.000922 | 0.00135
in n-propanol | 0.0001 | 0.000125 | 0.000163 | 0.000225 | 0.000286 | 0.000381 | 0.000538 | 0.000729 | 0.000983
in sec-butanol | 6.35e-05 | 7.97e-05 | 0.000104 | 0.000141 | 0.000184 | 0.000248 | 0.000365 | 0.000568 | 0.000887
